Data on 2 molecules can be found in article PMC3788091 (Journal of controlled release : official journal of the …, 2013).

One data set is described as follows: in vivo. Conditions: Sprague Dawley, rat, intravenous, 10 mg DTX equivalent/kg.
The conditions of data set [1]: man and rodents; cited from earlier work.
The conditions of data set [2]: two compartment model, nonlinear regression fit.
For data set [3] the following is noted: rat, in vivo.
The conditions of data set [4]: rat, in vivo. This is another data set of the same source.
For data set [5] the following is noted: rat, in vivo. The source holds these as a separate data set.

As usually defined, the clearance is the rate of elimination divided by the concentration. For orientation: Km means the substrate concentration at which the rate is half of its maximum. As for `CC(=O)O[C@@]12CO[C@@H]1C[C@H](O)[C@@]1(C)C(=O)[C@H](O)C3=C(C)[C@@H](OC(=O)[C@H](O)[C@@H](NC(=O)OC(C)(C)C)c4ccccc4)C[C@@](O)([C@@H](OC(=O)c4ccccc4)[C@H]21)C3(C)C` [DTX, Docetaxel], in “in vivo” (plasma and bile), the clearance is 3.53 mL/min. Moreover, in “in vivo” (plasma), the Michaelis-Menten constant (Km) amounted to 0.124 µg/mL. In addition, in data set [1], the “renal clearance contribution to DTX clearance” value is given as less than 10%. Moreover, in data set [2], the “CLD (distribution clearance)” value turned out to be 2202 mL/h; the “VC (volume of the central compartment)” value came out at 760 mL; the “VP (volume of the peripheral compartment)” value is reported as 5811 mL; the “Vmax (nonlinear clearance, all remaining routes)” value stood at 391464 ng/h.
Turning to Taxotere, in data set [3], the “percentage of the total 8h biliary metabolites excreted as HDTX (%HDTX)” value is 82±12%. The “tissue distribution phase half-life (t1/2)” value in data set [4] is ~ 30 min. Further, in data set [4] (iv), the CL is 86.7 mL/min/kg, the “V (apparent volume of distribution)” value was 3.401 L/kg and the “t1/2 (terminal elimination half-life)” value is 3 h. The “cumulative 24h urinary DTX excretion” value in data set [5] came out at 2.36 ± 0.98 % injected dose.
